Experiment [1] addresses Delta-type opioid receptor (Homo sapiens) (UniProt P41143). The experiment can be described thus: Antagonist activity at human delta-opioid receptor expressed in CHO cell membranes assessed as inhibition of DPDPE-induced [35S]GTPgammaS binding incubated for 60 mins by scintillation counting method. The format is functional. A general note: GTPγS is a poorly hydrolysed GTP analogue; its binding reports G protein activation.

For experiment [2], the target named is Mu-type opioid receptor (Homo sapiens) (UniProt P35372). In words: Agonist activity at human mu-opioid receptor expressed in CHO cell membranes assessed as stimulation of [35S]GTPgammaS binding at 10 uM incubated for 60 mins by scintillation counting method. The format is functional.
Sequence of Mu-type opioid receptor (Homo sapiens) (P35372 whole entry): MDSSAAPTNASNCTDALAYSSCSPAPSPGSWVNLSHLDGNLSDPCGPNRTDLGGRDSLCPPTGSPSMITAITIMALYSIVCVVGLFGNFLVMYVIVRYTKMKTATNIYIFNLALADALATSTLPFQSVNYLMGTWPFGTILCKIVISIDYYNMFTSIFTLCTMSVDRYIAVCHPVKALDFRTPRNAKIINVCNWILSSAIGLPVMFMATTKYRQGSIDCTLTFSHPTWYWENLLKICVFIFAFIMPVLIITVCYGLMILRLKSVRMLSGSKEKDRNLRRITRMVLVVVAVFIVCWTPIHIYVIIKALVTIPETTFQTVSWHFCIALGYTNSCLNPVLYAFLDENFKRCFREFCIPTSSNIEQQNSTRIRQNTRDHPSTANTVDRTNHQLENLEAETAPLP
Experiment [3] concerns the target Delta-type opioid receptor (Homo sapiens) (UniProt P41143). The experiment can be described thus: Agonist activity at human delta-opioid receptor expressed in CHO cell membranes assessed as stimulation of [35S]GTPgammaS binding at 10 uM incubated for 60 mins by scintillation counting method. The format is functional.
In experiment [4] the target is Kappa-type opioid receptor (Homo sapiens) (UniProt P41145). In words: Agonist activity at human kappa-opioid receptor expressed in CHO cell membranes assessed as stimulation of [35S]GTPgammaS binding at 10 uM incubated for 60 mins by scintillation counting method. The format is functional.
Sequence of Kappa-type opioid receptor (Homo sapiens) (P41145 whole entry): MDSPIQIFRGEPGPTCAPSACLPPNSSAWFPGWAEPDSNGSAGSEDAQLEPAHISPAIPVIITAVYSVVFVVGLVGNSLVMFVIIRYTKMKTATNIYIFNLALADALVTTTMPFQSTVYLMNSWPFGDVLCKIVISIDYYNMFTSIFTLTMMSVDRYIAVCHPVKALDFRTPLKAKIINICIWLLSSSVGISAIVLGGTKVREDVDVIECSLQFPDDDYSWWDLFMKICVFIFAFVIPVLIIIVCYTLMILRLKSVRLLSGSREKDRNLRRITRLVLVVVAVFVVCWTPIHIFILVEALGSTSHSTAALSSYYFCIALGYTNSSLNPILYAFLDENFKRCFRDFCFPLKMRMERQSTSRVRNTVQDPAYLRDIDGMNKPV
Experiment [5] has the same target. In words: Antagonist activity at human kappa-opioid receptor expressed in CHO cell membranes assessed as inhibition of U69593-induced [35S]GTPgammaS binding incubated for 60 mins by scintillation counting method. The class given is functional.
The target of experiment [6] is Mu-type opioid receptor (Homo sapiens) (UniProt P35372). In words: Antagonist activity at human mu-opioid receptor expressed in CHO cell membranes assessed as inhibition of DAMGO-induced [35S]GTPgammaS binding incubated for 60 mins by scintillation counting method. The format is functional.
The species entered for experiment [7] is Homo sapiens. In words: Selectivity index, ratio of Ke for antagonist activity at human mu-opioid receptor expressed in CHO cell membranes to Ke for antagonist activity at human kappa-opioid receptor expressed in CHO cell membranes. The class given is cell-based.
The species entered for experiment [8] is Homo sapiens. In words: Selectivity index, ratio of Ke for antagonist activity at human delta-opioid receptor expressed in CHO cell membranes to Ke for antagonist activity at human kappa-opioid receptor expressed in CHO cell membranes. The class given is cell-based.

Active and inactive are the calls of the source. The calls are words filed in the database; no cut-off is given here.

Sequence of Delta-type opioid receptor (Homo sapiens) (P41143 whole entry): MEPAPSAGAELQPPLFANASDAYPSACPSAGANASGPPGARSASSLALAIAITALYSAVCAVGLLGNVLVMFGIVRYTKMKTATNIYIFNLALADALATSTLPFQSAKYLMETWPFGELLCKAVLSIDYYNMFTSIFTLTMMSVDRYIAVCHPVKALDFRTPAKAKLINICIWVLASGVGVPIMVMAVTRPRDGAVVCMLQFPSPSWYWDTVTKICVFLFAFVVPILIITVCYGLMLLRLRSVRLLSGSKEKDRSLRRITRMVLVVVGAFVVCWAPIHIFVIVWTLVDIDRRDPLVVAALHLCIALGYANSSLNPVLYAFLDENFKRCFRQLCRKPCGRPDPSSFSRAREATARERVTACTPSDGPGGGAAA

For `CC1CCN(C[C@H](NC(=O)[C@@H]2Cc3ccc(O)cc3CN2)C(C)C)CC1`, the Ke in experiment [1] was more than 3000 nM. Besides, the outcome in experiment [2], in experiment [3] and in experiment [4] was inactive.

Take `CC1CCN(C[C@@H](NC[C@H]2Cc3ccc(O)cc3CN2)C(C)C)CC1`: the outcome in experiment [2], in experiment [3] and in experiment [4] was inactive.

Take `CC1CCN(C[C@@H](NC(=O)[C@H](N)Cc2ccc(O)cc2)C(C)C)CC1`: the result in experiment [2], in experiment [3] and in experiment [4] was inactive.

For `CC1CC(C)CN(C[C@@H](NC(=O)[C@H]2Cc3ccc(O)cc3CN2)C(C)C)C1` (some centres undefined), the result in experiment [2], in experiment [3] and in experiment [4] was inactive.

As for `CC(C)[C@@H](CN1CCOCC1)NC(=O)[C@H]1Cc2ccc(O)cc2CN1`, the Ke in experiment [5] came to 396 nM. Besides, the outcome in experiment [2], in experiment [3] and in experiment [4] was inactive.

For the molecule `CC(C)[C@@H](CN1CC[C@@H](C)[C@@H](C)C1)NC(=O)[C@H]1Cc2ccc(O)cc2CN1` (mixture of isomers), the outcome in experiment [2], in experiment [3] and in experiment [4] was inactive.

For the molecule `CC(C)[C@@H](CN1CCCC1)NC(=O)[C@H]1Cc2ccc(O)cc2CN1`, the outcome in experiment [2], in experiment [3] and in experiment [4] was inactive.

For `CC1CCN(C[C@@H](NC(=O)[C@H]2Cc3ccc(O)cc3CN2)C2CC2)CC1`, the result in experiment [2], in experiment [3] and in experiment [4] was inactive.

On to `O=C(NCCN1CCCCC1)[C@H]1Cc2ccc(O)cc2CN1`, for which the result in experiment [2], in experiment [3] and in experiment [4] was inactive.

Turning to `CC(C)[C@@H](CN1CCC(C(F)F)CC1)NC(=O)[C@H]1Cc2ccc(O)cc2CN1`, the Ke in experiment [6] is 70.9 nM; in experiment [5], 3.45 nM. Moreover, the outcome in experiment [2], in experiment [3] and in experiment [4] was inactive.

In the case of `CC(C)[C@@H](CN1CC=CCC1)NC(=O)[C@H]1Cc2ccc(O)cc2CN1`, the result in experiment [2], in experiment [3] and in experiment [4] was inactive.

On to `CCN(CC)C[C@@H](NC(=O)[C@H]1Cc2ccc(O)cc2CN1)C(C)C`, for which, in the experiment listed under Homo sapiens [7], the Ratio Ke is 16.5. Besides, the result in experiment [2], in experiment [3] and in experiment [4] was inactive.

For the molecule `CCCN(CCC)C[C@@H](NC(=O)[C@H]1Cc2ccc(O)cc2CN1)C(C)C`, the outcome in experiment [2], in experiment [3] and in experiment [4] was inactive.

In the case of `CC(C)[C@@H](CN1CCC(F)(F)CC1)NC(=O)[C@H]1Cc2ccc(O)cc2CN1`, the Ke in experiment [6] turned out to be 604 nM; in experiment [5] it was 11.8 nM. The Ratio Ke in the experiment filed under Homo sapiens [7] stood at 51. Further, the result in experiment [2], in experiment [3] and in experiment [4] was inactive.

As to `CC(C)[C@@H](CN1CCN(C)CC1)NC(=O)[C@H]1Cc2ccc(O)cc2CN1`, the Ke in experiment [6] was 915 nM; in experiment [5] it was 98.8 nM. Besides, in the experiment listed under Homo sapiens [7], the Ratio Ke stood at 9. Moreover, the result in experiment [2], in experiment [3] and in experiment [4] was inactive.

Consider `CC1=CCN(C[C@@H](NC(=O)[C@H]2Cc3ccc(O)cc3CN2)C(C)C)CC1`, for which the outcome in experiment [2], in experiment [3] and in experiment [4] was inactive.

For the molecule `CC1=C(C)CN(C[C@@H](NC(=O)[C@H]2Cc3ccc(O)cc3CN2)C(C)C)CC1`, the result in experiment [2], in experiment [3] and in experiment [4] was inactive.

With `CC1CCN(C[C@@H](NC(=O)[C@@H]2Cc3ccc(O)cc3CN2)C(C)C)CC1`, in experiment [1], the Ke is more than 3000 nM. Further, the result in experiment [2], in experiment [3] and in experiment [4] was inactive.

`CC1CCCN(C[C@@H](NC(=O)[C@H]2Cc3ccc(O)cc3CN2)C(C)C)C1` (mixture of isomers): the result in experiment [2], in experiment [3] and in experiment [4] was inactive.

As to `CC(C)[C@@H](CN1C2CCC1CC2)NC(=O)[C@H]1Cc2ccc(O)cc2CN1`, the result in experiment [2], in experiment [3] and in experiment [4] was inactive.

In the case of `CC(C)[C@@H](CN1CCC(N(C)C)CC1)NC(=O)[C@H]1Cc2ccc(O)cc2CN1`, the results for the Ke in experiment [6] and in experiment [5] were 318 nM and 8.08 nM, respectively. Moreover, in the experiment filed under Homo sapiens [7], the Ratio Ke worked out at 39. For the same molecule, the result in experiment [2], in experiment [3] and in experiment [4] was inactive.

For the molecule `CC(C)[C@@H](CN1CCC(C(N)=O)CC1)NC(=O)[C@H]1Cc2ccc(O)cc2CN1`, the Ke came out at 129 nM in experiment [6] and 3.22 nM in experiment [5]. For the same molecule, the Ratio Ke in the experiment listed under Homo sapiens [7] amounted to 40. Besides, the outcome in experiment [2], in experiment [3] and in experiment [4] was inactive.

Regarding `CC1CCN(C[C@@H](NC(=O)[C@@H]2CCc3cc(O)ccc3C2)C(C)C)CC1`, the outcome in experiment [2], in experiment [3] and in experiment [4] was inactive.

`CC1CCN(C[C@H](NC(=O)[C@H]2Cc3ccc(O)cc3CN2)C(C)C)CC1`: the Ke in experiment [1] was more than 3000 nM. Also, the result in experiment [2], in experiment [3] and in experiment [4] was inactive.

For `CC(C)[C@@H](CN1CC[C@H](C)[C@@H](C)C1)NC(=O)[C@H]1Cc2ccc(O)cc2CN1` (mixture of isomers), the outcome in experiment [2], in experiment [3] and in experiment [4] was inactive.

Consider `CC(C)[C@@H](CN1CCC(C#N)CC1)NC(=O)[C@H]1Cc2ccc(O)cc2CN1`, for which the values for the Ke in experiment [6] and in experiment [5] were 647 nM and 12.7 nM, respectively. The Ratio Ke in the experiment filed under Homo sapiens [7] amounted to 51. The outcome in experiment [2], in experiment [3] and in experiment [4] was inactive.

Turning to `CC(C)[C@@H](CN1CCCCC1C)NC(=O)[C@H]1Cc2ccc(O)cc2CN1` (mixture of isomers), the results for the Ke in experiment [6] and in experiment [5] were 44.9 nM and 15.1 nM, respectively. In addition, the Ratio Ke in the experiment filed under Homo sapiens [7] turned out to be 3. In addition, the result in experiment [2], in experiment [3] and in experiment [4] was inactive.

Regarding `CC(C)[C@@H](CN1CCC(C(F)(F)F)CC1)NC(=O)[C@H]1Cc2ccc(O)cc2CN1`, the Ke in experiment [6] is 67.9 nM; in experiment [5] it was 4.69 nM. For the same molecule, in the experiment filed under Homo sapiens [7], the Ratio Ke was 14. Also, the result in experiment [2], in experiment [3] and in experiment [4] was inactive.

Turning to `CC1CCN(C[C@@H](NC(=O)c2ccc3cc(O)ccc3c2)C(C)C)CC1`, the result in experiment [2], in experiment [3] and in experiment [4] was inactive.

For the molecule `CC1=CCCN(C[C@@H](NC(=O)[C@H]2Cc3ccc(O)cc3CN2)C(C)C)C1`, the result in experiment [2], in experiment [3] and in experiment [4] was inactive.

Regarding `CC(C)[C@@H](CN1CCCCC1=O)NC(=O)[C@H]1Cc2ccc(O)cc2CN1`, the outcome in experiment [2], in experiment [3] and in experiment [4] was inactive.

For the molecule `COC1CCN(C[C@@H](NC(=O)[C@H]2Cc3ccc(O)cc3CN2)C(C)C)CC1`, the Ke is 198 nM in experiment [6] and 6.53 nM in experiment [5]. In addition, in the experiment filed under Homo sapiens [7], the Ratio Ke was found to be 30. In addition, the outcome in experiment [2], in experiment [3] and in experiment [4] was inactive.

As for `CC(C)[C@@H](CN1CC[C@@](C)(c2cccc(O)c2)[C@@H](C)C1)NC(=O)[C@H]1Cc2ccc(O)cc2CN1C`, the Ratio Ke was 1310 in the experiment listed under Homo sapiens [7] and 3070 in the experiment listed under Homo sapiens [8].

In the case of `CC(C)CN(CC(C)C)C[C@@H](NC(=O)[C@H]1Cc2ccc(O)cc2CN1)C(C)C`, in experiment [5], the Ke was found to be 137 nM. Moreover, the result in experiment [2], in experiment [3] and in experiment [4] was inactive.

On to `CC(C)[C@@H](CN1CCCCC1)NC(=O)[C@H]1Cc2ccc(O)cc2CN1`, for which the outcome in experiment [2], in experiment [3] and in experiment [4] was inactive.

In the case of `CC(C)[C@@H](CN1CCCCCC1)NC(=O)[C@H]1Cc2ccc(O)cc2CN1`, the result in experiment [2], in experiment [3] and in experiment [4] was inactive.

The record behind these values is ChEMBL document CHEMBL4145694 (J Med Chem, 2018).
